In paper PMC6519732 (Journal of medicinal chemistry, 2019):

Experiments:
[1] = tested on: T24 cells; conditions: T24, 10 and 100 μM, 72 h
[2] = tested on: HepaRG cells; experiment: CellTiter-Blue cell viability assay, HepaRG; conditions: 24 h of treatment, highest tested concentration (100 μM)
[3] = Metabolic stability in human liver microsomes; type: in vitro ADME
[4] = tested on: MDA-MB-231 cells; conditions: MDA-MB-231, 10 and 100 μM, 72 h
[5] = tested on: HUH7 cells; conditions: HUH7, 10 and 100 μM, 72 h

In the case of `O=C(NO)c1ccc(CN2c3ccccc3Sc3cccnc32)cc1` [Compound 7i, 4-[(10H-Benzo[b]pyrido[2,3-e][1,4]thiazin-10-yl)methyl]-N-hydroxybenzamide], the “effect on proliferation (in words)” value [1] is reported as “inhibited proliferation”, the “Viability of HepaRG cells” value [2] is reported as “not affected” and the “human liver microsomal stability (in words)” value [3] is reported as “metabolically quite stable”. The half-life at 2 μM ([3]; human, liver microsomes) was > 40 min, the “effect on proliferation (in words)” value [4] was “inhibited proliferation” and the “effect on proliferation (in words)” value [5] was “inhibited proliferation”.
